The source of these data is patent publication US20040152903A1, “6-chloro-3-pyridylmethylpropylamine derivatives, preparation process thereof and bactericides” (priority 2004, published 2004).

The assay deals with Botrytis cinerea. In words: Antifungal activity test (PDA plate, hypha extension inhibition). It counts as cell-based. Particulars: 1.6 ppm in PDA culture medium. The method, then: (Antifungal Activity Test against Various Pathogenic Fungi) For each of the compounds I-1 to 27 of the present invention and the comparative compounds (a) to (d), (m-1) and (m-3), 20 mg was weighed and dissolved in 2 ml of dimethylsulfoxide, and a double dilution row in 10 steps was prepared by further using dimethylsulfoxide. A 0.6 ml portion of these solutions was each added to 60 ml of a PDA culture medium (potato-dextrose-agar culture medium) at about 60° C., they were well mixed in a 100 ml Erlenmeyer flask, the solution was poured into a schale and was solidified, the plate culture media containing the compounds according to the present invention with final concentrations of 100, 50.0, 25.0, 12.5, 6.3, 3.2, 1.6, 0.8, 0.4 and 0.2 mg/l were prepared. On the other hand, the specimen bacteria cultured on the plate culture media beforehand was punched by a 4 mm diameter cork borer, and was inoculated on the plate culture media containing the aforementioned chemicals. After the inoculation, the bacteria were cultured at the optimum growth temperature of each bacterium for 1 to 7 days (for this optimum growth temperature, LIST OF CULTURES 1996 Microorganisms 10th edition published by Fermentation Research Institute (Foundation) can be referred to.), and the growth of the bacteria was measured by the diameter of a colony. […] R=100(dc−dt)/dc (Equation 3) [wherein each symbol is shown as follows: R=Hypha extension inhibition rate (%), dc=Diameter of colony on no-treated plate, dt=Diameter of colony on chemical-treated plate.] The results obtained above was evaluated in 5 steps in accordance with the following examination scale. <Growth Inhibition> 5: Hypha extension inhibition rate of 90% or more 4: Hypha extension inhibition rate of from 70% to less than 90% 3: […] 2: […] In addition, the abbreviations in Table 10 are as follows: B.c: Botrytis cinerea

As for `CC(Cc1ccc(C(F)(F)F)c(F)c1F)CN(C)Cc1ccc(Cl)nc1` (centres unmarked) [Compound I-10], the “Growth Inhibition B.c (1.6)” value is 5 (Hypha extension inhibition rate of 90% or more).

Turning to `CC(Cc1ccc2c(c1)OC(F)(F)O2)CN(C)Cc1ccc(Cl)nc1` (centres unmarked) [Compound I-24], the “Growth Inhibition B.c (1.6)” value is recorded as 4 (Hypha extension inhibition rate of from 70% to less than 90%).
